The source made the active and inactive calls. The rule behind the calls is not given here.
Tested on: CCRIS mutagenicity, Ames/micronucleus/aberration tests
Assay: CCRIS mutagenicity studies
[1] = Test System: AMES SALMONELLA TYPHIMURIUM, Strain/Indicator: TA98, Metabolic Activation: NONE, Method: STANDARD PLATE
[2] = Test System: AMES SALMONELLA TYPHIMURIUM, Strain/Indicator: TA100, Metabolic Activation: NONE, Method: STANDARD PLATE
[3] = Test System: AMES SALMONELLA TYPHIMURIUM, Strain/Indicator: TA1535, Metabolic Activation: NONE, Method: STANDARD PLATE
[4] = Test System: AMES SALMONELLA TYPHIMURIUM, Strain/Indicator: TA1537, Metabolic Activation: NONE, Method: STANDARD PLATE
[5] = Test System: AMES SALMONELLA TYPHIMURIUM, Strain/Indicator: TA100, Metabolic Activation: NONE, Method: PREINCUBATION

SMILES: O=C1CCC(=O)N1Br
- mutagenic call (Test System: AMES SALMONELLA TYPHIMURIUM, Strain/Indicator: TA98, Metabolic Activation: HAMSTER, LIVER, S-9, AROCLOR 1254 (10%), Method: STANDARD PLATE): inactive; negative
- mutagenic call [1]: inactive; negative
- mutagenic call (Test System: AMES SALMONELLA TYPHIMURIUM, Strain/Indicator: TA98, Metabolic Activation: RAT, LIVER, S-9, AROCLOR 1254 (10%), Method: STANDARD PLATE): inactive; negative
- mutagenic call (Test System: AMES SALMONELLA TYPHIMURIUM, Strain/Indicator: TA100, Metabolic Activation: HAMSTER, LIVER, S-9, AROCLOR 1254 (10%), Method: STANDARD PLATE): active; positive
- mutagenic call [2]: inactive; negative
- mutagenic call (Test System: AMES SALMONELLA TYPHIMURIUM, Strain/Indicator: TA100, Metabolic Activation: RAT, LIVER, S-9, AROCLOR 1254 (10%), Method: STANDARD PLATE): active; positive
- mutagenic call (Test System: MOUSE LYMPHOMA, Strain/Indicator: L5178Y (TK+/TK-), Metabolic Activation: NONE, Method: SUSPENSION/PLATE): active; positive. reevaluation of results: equivocal
- mutagenic call (Test System: MOUSE LYMPHOMA, Strain/Indicator: L5178Y (TK+/TK-), Metabolic Activation: RAT, LIVER, S-9, AROCLOR 1254, Method: SUSPENSION/PLATE): inactive; negative. reevaluation of results: negative

SMILES: NCCCC[C@H](N[C@@H](CCc1ccccc1)C(=O)O)C(=O)N1CCC[C@H]1C(=O)O
- mutagenic call [1]: inactive; negative
- mutagenic call (Test System: AMES SALMONELLA TYPHIMURIUM, Strain/Indicator: TA98, Metabolic Activation: RAT, LIVER, S-9, AROCLOR 1254, Method: STANDARD PLATE): inactive; negative
- mutagenic call [2]: inactive; negative
- mutagenic call (Test System: AMES SALMONELLA TYPHIMURIUM, Strain/Indicator: TA100, Metabolic Activation: RAT, LIVER, S-9, AROCLOR 1254, Method: STANDARD PLATE): inactive; negative
- mutagenic call [3]: inactive; negative
- mutagenic call (Test System: AMES SALMONELLA TYPHIMURIUM, Strain/Indicator: TA1535, Metabolic Activation: RAT, LIVER, S-9, AROCLOR 1254, Method: STANDARD PLATE): inactive; negative
- mutagenic call [4]: inactive; negative
- mutagenic call (Test System: AMES SALMONELLA TYPHIMURIUM, Strain/Indicator: TA1537, Metabolic Activation: RAT, LIVER, S-9, AROCLOR 1254, Method: STANDARD PLATE): inactive; negative
- mutagenic call (Test System: AMES SALMONELLA TYPHIMURIUM, Strain/Indicator: TA1538, Metabolic Activation: NONE, Method: STANDARD PLATE): inactive; negative
- mutagenic call (Test System: AMES SALMONELLA TYPHIMURIUM, Strain/Indicator: TA1538, Metabolic Activation: RAT, LIVER, S-9, AROCLOR 1254, Method: STANDARD PLATE): inactive; negative
- mutagenic call (Test System: E. COLI, Strain/Indicator: WP2, Metabolic Activation: NONE, Method: STANDARD PLATE): inactive; negative
- mutagenic call (Test System: E. COLI, Strain/Indicator: WP2, Metabolic Activation: RAT, LIVER, S-9, AROCLOR 1254, Method: STANDARD PLATE): inactive; negative
- mutagenic call (Test System: E. COLI, Strain/Indicator: WP2 UVRA, Metabolic Activation: NONE, Method: STANDARD PLATE): inactive; negative
- mutagenic call (Test System: E. COLI, Strain/Indicator: WP2 UVRA, Metabolic Activation: RAT, LIVER, S-9, AROCLOR 1254, Method: STANDARD PLATE): inactive; negative

SMILES: BrCc1ccc(Br)cc1
- mutagenic call (Test System: AMES SALMONELLA TYPHIMURIUM, Strain/Indicator: TA97A, Metabolic Activation: NONE, Method: STANDARD PLATE): inactive; negative
- mutagenic call (Test System: AMES SALMONELLA TYPHIMURIUM, Strain/Indicator: TA97A, Metabolic Activation: RAT LIVER S-9, PHENOBARBITAL, BETA-NAPHTHOFLAVONE, 3.5%, Method: STANDARD PLATE): inactive; negative
- mutagenic call [1]: inactive; negative
- mutagenic call (Test System: AMES SALMONELLA TYPHIMURIUM, Strain/Indicator: TA98, Metabolic Activation: RAT LIVER S-9, PHENOBARBITAL, BETA-NAPHTHOFLAVONE, 3.5%, Method: STANDARD PLATE): inactive; negative
- mutagenic call [2]: inactive; negative
- mutagenic call (Test System: AMES SALMONELLA TYPHIMURIUM, Strain/Indicator: TA100, Metabolic Activation: RAT LIVER S-9, PHENOBARBITAL, BETA-NAPHTHOFLAVONE, 3.5%, Method: STANDARD PLATE): inactive; negative
- mutagenic call [3]: inactive; negative
- mutagenic call (Test System: AMES SALMONELLA TYPHIMURIUM, Strain/Indicator: TA1535, Metabolic Activation: RAT LIVER S-9, PHENOBARBITAL, BETA-NAPHTHOFLAVONE, 3.5%, Method: STANDARD PLATE): inactive; negative
- mutagenic call (Test System: ESCHERICHIA COLI, Strain/Indicator: WP2 UVR A, Metabolic Activation: NONE, Method: STANDARD PLATE): inactive; negative
- mutagenic call (Test System: ESCHERICHIA COLI, Strain/Indicator: WP2 UVR A, Metabolic Activation: RAT LIVER S-9, PHENOBARBITAL, BETA-NAPHTHOFLAVONE, 3.5%, Method: STANDARD PLATE): inactive; negative

SMILES: CC(=O)OCC12OOC1(C)c1ccccc1O2 (stereo not given)
- mutagenic call [5]: active; positive

SMILES: COc1cc(O)c2c(c1)Cc1cc(C)cc(O)c1C2=O
- mutagenic call [4]: inactive; negative
- mutagenic call (Test System: AMES SALMONELLA TYPHIMURIUM, Strain/Indicator: TA1537, Metabolic Activation: S-9, Method: STANDARD PLATE): active; positive

SMILES: O=S(=O)(O)c1ccc(N=Nc2cc(S(=O)(=O)O)c3ccccc3c2O)c2ccccc12
- mutagenic call (End Point: IN VITRO CHROMOSOMAL ABERRATIONS, Test System: CHO CELLS, Metabolic Activation: NONE): inactive; negative
- mutagenic call (End Point: IN VITRO CHROMOSOMAL ABERRATIONS, Test System: CHO CELLS, Metabolic Activation: RAT, LIVER, S-9, AROCLOR 1254): inactive; negative
- mutagenic call (Test System: Mouse lymphoma, Strain/Indicator: L5178Y (tk+/tk-), Metabolic Activation: None, Method: Suspension/plate): inactive; negative
- mutagenic call (Test System: Mouse lymphoma, Strain/Indicator: L5178Y (tk+/tk-), Metabolic Activation: Rat, Liver, S-9, Aroclor 1254, Method: Suspension/plate): inactive; negative

SMILES: Oc1ccc2cc(SSc3ccc4cc(O)ccc4c3)ccc2c1
- mutagenic call (Test System: AMES SALMONELLA TYPHIMURIUM, Strain/Indicator: TA97, Metabolic Activation: HAMSTER, LIVER, S-9, AROCLOR 1254 (10 OR 30%), Method: PREINCUBATION): inactive; negative
- mutagenic call (Test System: AMES SALMONELLA TYPHIMURIUM, Strain/Indicator: TA97, Metabolic Activation: NONE, Method: PREINCUBATION): inactive; negative
- mutagenic call (Test System: AMES SALMONELLA TYPHIMURIUM, Strain/Indicator: TA97, Metabolic Activation: RAT, LIVER, S-9, AROCLOR 1254 (10 OR 30%), Method: PREINCUBATION): inactive; negative
- mutagenic call (Test System: AMES SALMONELLA TYPHIMURIUM, Strain/Indicator: TA98, Metabolic Activation: HAMSTER, LIVER, S-9, AROCLOR 1254 (10 OR 30%), Method: PREINCUBATION): inactive; negative
- mutagenic call (Test System: AMES SALMONELLA TYPHIMURIUM, Strain/Indicator: TA98, Metabolic Activation: NONE, Method: PREINCUBATION): inactive; negative
- mutagenic call (Test System: AMES SALMONELLA TYPHIMURIUM, Strain/Indicator: TA98, Metabolic Activation: RAT, LIVER, S-9, AROCLOR 1254 (5 OR 30%), Method: PREINCUBATION): inactive; negative
- mutagenic call (Test System: AMES SALMONELLA TYPHIMURIUM, Strain/Indicator: TA98, Metabolic Activation: RAT, LIVER, S-9, AROCLOR 1254 (10%), Method: PREINCUBATION): inactive; negative
- mutagenic call (Test System: AMES SALMONELLA TYPHIMURIUM, Strain/Indicator: TA100, Metabolic Activation: HAMSTER, LIVER, S-9, AROCLOR 1254 (10 OR 30%), Method: PREINCUBATION): inactive; negative
- mutagenic call [5]: inactive; negative
- mutagenic call (Test System: AMES SALMONELLA TYPHIMURIUM, Strain/Indicator: TA100, Metabolic Activation: RAT, LIVER, S-9, AROCLOR 1254 (5 OR 30%), Method: PREINCUBATION): inactive; negative
- mutagenic call (Test System: AMES SALMONELLA TYPHIMURIUM, Strain/Indicator: TA100, Metabolic Activation: RAT, LIVER, S-9, AROCLOR 1254 (10%), Method: PREINCUBATION): inactive; negative
- mutagenic call (Test System: AMES SALMONELLA TYPHIMURIUM, Strain/Indicator: TA102, Metabolic Activation: HAMSTER, LIVER, S-9, AROCLOR 1254 (10 OR 30%), Method: PREINCUBATION): inactive; negative
- mutagenic call (Test System: AMES SALMONELLA TYPHIMURIUM, Strain/Indicator: TA102, Metabolic Activation: NONE, Method: PREINCUBATION): inactive; negative
- mutagenic call (Test System: AMES SALMONELLA TYPHIMURIUM, Strain/Indicator: TA102, Metabolic Activation: RAT, LIVER, S-9, AROCLOR 1254 (10 OR 30%), Method: PREINCUBATION): inactive; negative
- mutagenic call (Test System: AMES SALMONELLA TYPHIMURIUM, Strain/Indicator: TA1535, Metabolic Activation: RAT, LIVER, S-9, AROCLOR 1254 (5, 10 OR 30%), Method: PREINCUBATION): inactive; negative
- mutagenic call (Test System: AMES SALMONELLA TYPHIMURIUM, Strain/Indicator: TA1538, Metabolic Activation: RAT, LIVER, S-9, AROCLOR 1254 (5, 10 OR 30%), Method: PREINCUBATION): inactive; negative

Reference: PubChem BioAssay AID1259407 (Chemical Carcinogenesis Research Information System (CCRIS), 2018)
